Results as given in ChEMBL document CHEMBL3046832, “Synthesis of some sulfonamides, disubstituted sulfonylureas or thioureas and some structurally related variants. A class of promising antitumor agents” (2007).

Experiments:
Type in all cases: functional
NCI-H23 = assay: Cytotoxicity against Homo sapiens (human) NCI-H23 cells after 48 hr by SRB assay; conditions: NCI-H23, 48 h
[1] = Cytotoxicity against Homo sapiens (human) ovarian cancer cells after 48 hr by SRB assay; conditions: Cancer cell lines
OVCAR-5 = assay: Cytotoxicity against Homo sapiens (human) OVCAR5 cells after 48 hr by SRB assay; conditions: OVCAR-5, 48 h
SF-295 = assay: Cytotoxicity against Homo sapiens (human) SF295 cells after 48 hr by SRB assay; conditions: SF-295, 48 h
T47D = assay: Cytotoxicity against Homo sapiens (human) T47D cells after 48 hr by SRB assay
HOP-92 = assay: Cytotoxicity against Homo sapiens (human) HOP92 cells after 48 hr by SRB assay; conditions: HOP-92, 48 h
CAKI-1 = assay: Cytotoxicity against Homo sapiens (human) Caki1 cells after 48 hr by SRB assay; conditions: CAKI-1, 48 h
[2] = Cytotoxicity against Homo sapiens (human) leukemia cells after 48 hr by SRB assay; conditions: Leukemia cell
HOP-62 = assay: Cytotoxicity against Homo sapiens (human) HOP62 cells after 48 hr by SRB assay; conditions: HOP-62, 48 h
SK-MEL-5 = assay: Cytotoxicity against Homo sapiens (human) SK-MEL-5 cells after 48 hr by SRB assay; conditions: SK-MEL-5, 48 h
[3] = Cytotoxicity against Homo sapiens (human) CNS cancer cells after 48 hr by SRB assay; conditions: Cancer cell lines
A549 = assay: Cytotoxicity against Homo sapiens (human) A549 cells after 48 hr by SRB assay; conditions: A549, 48 h
MCF7 [4] = assay: Cytotoxicity against Homo sapiens (human) MCF7 cells assessed as cellular growth after 48 hr by Alamar blue assay; parameters: concentration or dose not given beside the values
SNB-19 = assay: Cytotoxicity against Homo sapiens (human) SNB19 cells after 48 hr by SRB assay; conditions: SNB-19, 48 h
MDA-MB-435 = assay: Cytotoxicity against Homo sapiens (human) MDA-MB-435 cells after 48 hr by SRB assay; conditions: MDA-MB-435, 48 h
[5] = Cytotoxicity against Homo sapiens (human) NCI-ADR-RES cells after 48 hr by SRB assay
[6] = Cytotoxicity against Homo sapiens (human) colon cancer cells after 48 hr by SRB assay; conditions: Cancer cell lines
[7] = Cytotoxicity against Homo sapiens (human) NCI-H322 cells after 48 hr by SRB assay; conditions: NCI-H322, 48 h
RXF 393 = assay: Cytotoxicity against Homo sapiens (human) RXF393 cells after 48 hr by SRB assay; conditions: RXF 393, 48 h
[8] = Cytotoxicity against Homo sapiens (human) breast cancer cells after 48 hr by SRB assay; conditions: Cancer cell lines
EKVX = assay: Cytotoxicity against Homo sapiens (human) EKVX cells after 48 hr by SRB assay
SW-620 = assay: Cytotoxicity against Homo sapiens (human) SW620 cells after 48 hr by SRB assay; conditions: SW-620, 48 h
OVCAR-3 = assay: Cytotoxicity against Homo sapiens (human) OVCAR3 cells after 48 hr by SRB assay; conditions: OVCAR-3, 48 h
786-0 = assay: Cytotoxicity against Homo sapiens (human) 786-0 cells after 48 hr by SRB assay; conditions: 786-0, 48 h
UO-31 = assay: Cytotoxicity against Homo sapiens (human) UO31 cells after 48 hr by SRB assay; conditions: UO-31, 48 h
SK-OV-3 = assay: Cytotoxicity against Homo sapiens (human) SKOV3 cells after 48 hr by SRB assay; conditions: SK-OV-3, 48 h
MDA-MB-231 = assay: Cytotoxicity against Homo sapiens (human) MDA-MB-231 cells after 48 hr by SRB assay; conditions: MDA-MB-231, 48 h
SF-268 = assay: Cytotoxicity against Homo sapiens (human) SF268 cells assessed as cellular growth after 48 hr by Alamar blue assay; parameters: concentration or dose not given beside the values
COLO 205 = assay: Cytotoxicity against Homo sapiens (human) COLO205 cells after 48 hr by SRB assay; conditions: COLO 205, 48 h
BT-549 = assay: Cytotoxicity against Homo sapiens (human) BT549 cells after 48 hr by SRB assay; conditions: BT-549, 48 h
U-251 = assay: Cytotoxicity against Homo sapiens (human) U251 cells after 48 hr by SRB assay; conditions: U-251, 48 h
OVCAR-4 = assay: Cytotoxicity against Homo sapiens (human) OVCAR4 cells after 48 hr by SRB assay; conditions: OVCAR-4, 48 h
SN12C = assay: Cytotoxicity against Homo sapiens (human) SN12C cells after 48 hr by SRB assay
HCT-15 = assay: Cytotoxicity against Homo sapiens (human) HCT15 cells after 48 hr by SRB assay; conditions: HCT-15, 48 h
M14 = assay: Cytotoxicity against Homo sapiens (human) M14 cells after 48 hr by SRB assay; conditions: M14, 48 h
NCI-H522 = assay: Cytotoxicity against Homo sapiens (human) NCI-H522 cells after 48 hr by SRB assay; conditions: NCI-H522, 48 h
KM12 = assay: Cytotoxicity against Homo sapiens (human) KM12 cells after 48 hr by SRB assay; conditions: KM12, 48 h
NCI-H460 = assay: Cytotoxicity against Homo sapiens (human) NCI-H460 cells assessed as cellular growth after 48 hr by Alamar blue assay; parameters: concentration or dose not given beside the values
IGROV-1 = assay: Cytotoxicity against Homo sapiens (human) IGROV1 cells after 48 hr by SRB assay; conditions: IGROV-1, 48 h
[9] = Cytotoxicity against Homo sapiens (human) renal cancer cells after 48 hr by SRB assay; conditions: Cancer cell lines
PC-3 = assay: Cytotoxicity against Homo sapiens (human) PC3 cells after 48 hr by SRB assay; conditions: PC-3, 48 h
RPMI-8226 = assay: Cytotoxicity against Homo sapiens (human) RPMI8226 cells after 48 hr by SRB assay; conditions: RPMI-8226, 48 h
[10] = Cytotoxicity against Homo sapiens (human) melanoma cells after 48 hr by SRB assay; conditions: Melanoma cell
MOLT-4 = assay: Cytotoxicity against Homo sapiens (human) MOLT4 cells after 48 hr by SRB assay; conditions: MOLT-4, 48 h
UACC-62 = assay: Cytotoxicity against Homo sapiens (human) UACC62 cells after 48 hr by SRB assay; conditions: UACC-62, 48 h
Hs-578T = assay: Cytotoxicity against Homo sapiens (human) Hs578T cells after 48 hr by SRB assay
MCF7 [11] = assay: Cytotoxicity against Homo sapiens (human) MCF7 cells after 48 hr by SRB assay; conditions: MCF7, 48 h

NS(=O)(=O)c1ccc(N2N=C3c4ccccc4CC3C2c2cccs2)cc1 (centres undefined)
GI50 (NCI-H23): 20.3 µM | GI50 [1]: 40.8 µM | TGI [1]: 79.6 µM | GI50 (OVCAR-5): 26.6 µM | GI50 (SF-295): 16.2 µM | GI50 (T47D): 66.9 µM | GI50 (HOP-92): 25.8 µM | GI50 (CAKI-1): 19.6 µM | GI50 [2]: 35.1 µM | TGI [2]: 95.5 µM | GI50 (HOP-62): 16.9 µM | GI50 (SK-MEL-5): 18 µM | GI50 [3]: 36.4 µM | TGI [3]: 70.3 µM | GI50 (A549): 13.1 µM | Activity (MCF7 [4]): <=32% | GI50 (SNB-19): 34.4 µM | GI50 (MDA-MB-435): 19.3 µM | GI50 [5]: 17.1 µM | GI50 [6]: 28 µM | TGI [6]: 74.5 µM | GI50 [7]: 5.79 µM | GI50 (RXF 393): 20.6 µM | GI50 [8]: 38.3 µM | TGI [8]: 52.1 µM | GI50 (EKVX): 15.9 µM | GI50 (SW-620): 35.4 µM | GI50 (OVCAR-3): 24.8 µM | GI50 (786-0): 17.6 µM | GI50 (UO-31): 39.4 µM | GI50 (SK-OV-3): 48 µM | GI50 (MDA-MB-231): 16.8 µM | Activity (SF-268): <=32% | GI50 (COLO 205): 58.9 µM | GI50 (BT-549): 19.3 µM | GI50 (U-251): 19.4 µM | GI50 (OVCAR-4): > 100 µM | GI50 (SN12C): 23.5 µM | GI50 (HCT-15): 34.7 µM | GI50 (M14): 26 µM | GI50 (NCI-H522): 39.3 µM | GI50 (KM12): 15.7 µM | Activity (NCI-H460): <=32% | GI50 (IGROV-1): 30 µM | GI50 [9]: 21.9 µM | TGI [9]: 43.7 µM | GI50 (PC-3): 22.1 µM | GI50 (RPMI-8226): 32.3 µM | GI50 [10]: 41.5 µM | TGI [10]: 51 µM | GI50 (MOLT-4): 18.9 µM | GI50 (UACC-62): 21.8 µM | GI50 (Hs-578T): 28.7 µM | GI50 (MCF7 [11]): > 100 µM
